{"source": "the NIST ThermoML archive (doi:10.1021/acs.jced.7b01101)", "key": {"[1]": {"assay": "refractive index (Na D-line) (dimensionless)", "conditions": "293.15 K; 100 kPa; Liquid; Standard Abbe refractometry"}, "[2]": {"conditions": "100 kPa, Liquid; for viscosity: Concentric cylinders viscometry"}, "[3]": {"assay": "refractive index (Na D-line) (dimensionless); wn = mass fraction of the nth substance listed", "conditions": "293.15 K, 100 kPa, Liquid, Standard Abbe refractometry"}, "[4]": {"assay": "refractive index (Na D-line) (dimensionless); an = ratio of the nth substance listed", "conditions": "293.15 K, 100 kPa, Liquid, Standard Abbe refractometry"}, "[5]": {"assay": "wn = mass fraction of the nth substance listed", "conditions": "100 kPa, Liquid; for electrical conductivity: 293.15 K, Alternating current cell with electrodes; for viscosity / mass density: 298.15 K; for viscosity: Concentric cylinders viscometry; for mass density: Vibrating tube method"}, "[6]": {"assay": "an = ratio of the nth substance listed", "conditions": "100 kPa, Liquid; for electrical conductivity: 293.15 K, Alternating current cell with electrodes; for viscosity / mass density: 298.15 K; for viscosity: Concentric cylinders viscometry; for mass density: Vibrating tube method"}}, "note": "Numbers after ± are expanded uncertainties."}
{"smiles": "NCCO", "note": "[2-aminoethan-1-ol]", "values": [{"measurement": "refractive index", "setting": "[1]", "result": "1.456 ± 0.002"}, {"measurement": "electrical conductivity", "setting": "[2]; 293.15 K, Alternating current cell with electrodes", "result": "0.0031 ± 0.0003", "unit": "S/m"}, {"measurement": "viscosity", "setting": "[2]; 298.15 K", "result": "18.75 ± 2.8", "unit": "mPa·s"}, {"measurement": "mass density", "setting": "[2]; 298.15 K, Vibrating tube method", "result": "1012 ± 1", "unit": "kg/m3"}]}
{"smiles": "NCCO", "note": "[2-aminoethan-1-ol] + O", "values": [{"measurement": "refractive index", "setting": "[3]; w1 = 0.2", "result": "1.3587 ± 0.0033"}, {"measurement": "refractive index", "setting": "[3]; w1 = 0.3", "result": "1.3718 ± 0.0033"}, {"measurement": "refractive index", "setting": "[3]; w1 = 0.4", "result": "1.3852 ± 0.0033"}, {"measurement": "refractive index", "setting": "[3]; w1 = 0.5", "result": "1.3975 ± 0.0034"}, {"measurement": "refractive index", "setting": "[3]; w1 = 0.6", "result": "1.4126 ± 0.0033"}, {"measurement": "refractive index", "setting": "[3]; w1 = 0.7", "result": "1.423 ± 0.0032"}, {"measurement": "refractive index", "setting": "[3]; w1 = 0.8", "result": "1.4368 ± 0.0029"}, {"measurement": "refractive index", "setting": "[3]; w1 = 0.9", "result": "1.4444 ± 0.0028"}, {"measurement": "refractive index", "setting": "[3]; w1 = 1", "result": "1.456 ± 0.002"}, {"measurement": "refractive index", "setting": "[4]; a2 = 1.5", "result": "1.3854 ± 0.002"}, {"measurement": "refractive index", "setting": "[4]; a2 = 2.333", "result": "1.372 ± 0.002"}, {"measurement": "refractive index", "setting": "[4]; a2 = 4", "result": "1.3587 ± 0.002"}, {"measurement": "electrical conductivity", "setting": "[5]; w1 = 0.2", "result": "0.102 ± 0.012", "unit": "S/m"}, {"measurement": "electrical conductivity", "setting": "[5]; w1 = 0.3", "result": "0.072 ± 0.0091", "unit": "S/m"}, {"measurement": "electrical conductivity", "setting": "[5]; w1 = 0.4", "result": "0.0461 ± 0.0063", "unit": "S/m"}, {"measurement": "electrical conductivity", "setting": "[5]; w1 = 0.5", "result": "0.029 ± 0.0045", "unit": "S/m"}, {"measurement": "electrical conductivity", "setting": "[5]; w1 = 0.6", "result": "0.0111 ± 0.0023", "unit": "S/m"}, {"measurement": "electrical conductivity", "setting": "[5]; w1 = 0.7", "result": "0.0089 ± 0.0012", "unit": "S/m"}, {"measurement": "electrical conductivity", "setting": "[5]; w1 = 0.8", "result": "0.0034 ± 0.0007", "unit": "S/m"}, {"measurement": "electrical conductivity", "setting": "[5]; w1 = 0.9", "result": "0.0032 ± 0.0003", "unit": "S/m"}, {"measurement": "electrical conductivity", "setting": "[5]; w1 = 1", "result": "0.0031 ± 0.0003", "unit": "S/m"}, {"measurement": "viscosity", "setting": "[5]; w1 = 0.2", "result": "1.7 ± 0.28", "unit": "mPa·s"}, {"measurement": "viscosity", "setting": "[5]; w1 = 0.3", "result": "2.6 ± 0.43", "unit": "mPa·s"}, {"measurement": "viscosity", "setting": "[5]; w1 = 0.4", "result": "3.5 ± 0.6", "unit": "mPa·s"}, {"measurement": "viscosity", "setting": "[5]; w1 = 0.5", "result": "5.4 ± 1", "unit": "mPa·s"}, {"measurement": "viscosity", "setting": "[5]; w1 = 0.6", "result": "9.67 ± 1.6", "unit": "mPa·s"}, {"measurement": "viscosity", "setting": "[5]; w1 = 0.7", "result": "12.26 ± 2.1", "unit": "mPa·s"}, {"measurement": "viscosity", "setting": "[5]; w1 = 0.8", "result": "20.39 ± 3.1", "unit": "mPa·s"}, {"measurement": "viscosity", "setting": "[5]; w1 = 0.9", "result": "19.45 ± 2.9", "unit": "mPa·s"}, {"measurement": "viscosity", "setting": "[5]; w1 = 1", "result": "18.75 ± 2.8", "unit": "mPa·s"}, {"measurement": "mass density", "setting": "[5]; w1 = 0.2", "result": "1007.1 ± 1.5", "unit": "kg/m3"}, {"measurement": "mass density", "setting": "[5]; w1 = 0.3", "result": "1012.9 ± 1.5", "unit": "kg/m3"}, {"measurement": "mass density", "setting": "[5]; w1 = 0.4", "result": "1018.3 ± 1.4", "unit": "kg/m3"}, {"measurement": "mass density", "setting": "[5]; w1 = 0.5", "result": "1022.1 ± 1.2", "unit": "kg/m3"}, {"measurement": "mass density", "setting": "[5]; w1 = 0.6", "result": "1025.1 ± 1.1", "unit": "kg/m3"}, {"measurement": "mass density", "setting": "[5]; w1 = 0.7", "result": "1026.5 ± 1", "unit": "kg/m3"}, {"measurement": "mass density", "setting": "[5]; w1 = 0.8", "result": "1024.7 ± 1.2", "unit": "kg/m3"}, {"measurement": "mass density", "setting": "[5]; w1 = 0.9", "result": "1020.4 ± 1.6", "unit": "kg/m3"}, {"measurement": "mass density", "setting": "[5]; w1 = 1", "result": "1012 ± 1", "unit": "kg/m3"}, {"measurement": "electrical conductivity", "setting": "[6]; a2 = 1.5", "result": "0.046 ± 0.005", "unit": "S/m"}, {"measurement": "electrical conductivity", "setting": "[6]; a2 = 2.333", "result": "0.072 ± 0.007", "unit": "S/m"}, {"measurement": "electrical conductivity", "setting": "[6]; a2 = 4", "result": "0.102 ± 0.01", "unit": "S/m"}, {"measurement": "viscosity", "setting": "[6]; a2 = 1.5", "result": "3.5 ± 0.53", "unit": "mPa·s"}, {"measurement": "viscosity", "setting": "[6]; a2 = 2.333", "result": "2.6 ± 0.39", "unit": "mPa·s"}, {"measurement": "viscosity", "setting": "[6]; a2 = 4", "result": "1.7 ± 0.26", "unit": "mPa·s"}, {"measurement": "mass density", "setting": "[6]; a2 = 1.5", "result": "1018.3 ± 1", "unit": "kg/m3"}, {"measurement": "mass density", "setting": "[6]; a2 = 2.333", "result": "1012.9 ± 1", "unit": "kg/m3"}, {"measurement": "mass density", "setting": "[6]; a2 = 4", "result": "1007.1 ± 1", "unit": "kg/m3"}]}
{"smiles": "O", "note": "[water]", "values": [{"measurement": "refractive index", "setting": "[1]", "result": "1.333 ± 0.002"}, {"measurement": "viscosity", "setting": "[2]; 298.15 K", "result": "0.89 ± 0.13", "unit": "mPa·s"}]}
{"smiles": "O", "note": "[water] + NCCO", "values": [{"measurement": "refractive index", "setting": "[3]; w2 = 0", "result": "1.333 ± 0.002"}, {"measurement": "viscosity", "setting": "[5]; w2 = 0", "result": "0.89 ± 0.13", "unit": "mPa·s"}]}
